The target in one experiment is MDM2 (Homo sapiens, UniProt Q00987). The experiment is described as follows: HTRF test: inhibition of MDM2-p53 protein binding.
Another experiment concerns the target T1, MDMX (Homo sapiens, UniProt O15151).
T1 sequence (O15151 2-134): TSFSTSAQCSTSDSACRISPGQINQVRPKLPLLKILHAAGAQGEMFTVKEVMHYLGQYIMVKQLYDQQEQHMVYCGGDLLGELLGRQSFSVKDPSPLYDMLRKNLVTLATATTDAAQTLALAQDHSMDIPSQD
The experiment is described as follows: HTRF test: inhibition of MDMX-p53 protein binding.

Experiment [1] concerns Blood cancer cells RS4; 11. Kind of experiment: CellTiter Glo test: growth inhibition of cells. The format is cell-based. Particulars: Homo sapiens, 11 cells, 72 h, cell viability. As to the method:
Test of Candidate Compounds on Growth Inhibition of Cells Determined by CellTiter Glo
Blood cancer cells RS4; 11 were inoculated into the 96-well cell culture plate through Multidrop 3000 cells per well, with a volume of 100 μL. The final compound concentration ranged from 50 μM to 0.01 μM at 9 concentration gradients and the DMSO final concentration was 0.1%. The cells and compounds were co-incubated in a cell incubator at 37° C. for 72 h, a CellTiter-Glo Luminescent Cell Viability Assay reagent was added 100 μL/well, the cells and compound were uniformly mixed and incubated at room temperature for 10 min, and Envision reading was performed. A sample treated with 50 μM of a positive compound was taken as a positive control and a sample treated with 100 nL of DMSO was taken as a negative control.

MDM2, sequence (Q00987 2-138): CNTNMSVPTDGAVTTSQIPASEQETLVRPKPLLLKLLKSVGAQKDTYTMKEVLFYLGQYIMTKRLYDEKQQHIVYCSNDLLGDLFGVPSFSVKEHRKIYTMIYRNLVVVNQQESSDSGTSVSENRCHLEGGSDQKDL

Regarding `O=C(NC(CO)CO)C(c1ccc(Cl)cc1)N1C(=O)N/C(=C\c2c[nH]c3cc(Cl)ccc23)C1=O` (stereo not shown) [Compound 22, (Z)-2-(4-((6-chloro-1H-indol-3-yl)methylene)-2,5-dioxoimidazolidin-1-yl)-2-(4-chlorophenyl)-N-(1,3-dihydroxypropan-2-yl)acetamide], the results for the IC50 at MDM2 and at MDMX were below 10 nM and 10 to 100 nM, respectively.
Regarding `CSc1c(Cl)ccc2c(/C=C3\NC(=O)N(Cc4ccc(F)c(F)c4)C3=O)c[nH]c12` [Compound 9], the half-maximal inhibitory concentration (IC50) in experiment [1] is above 10000 nM; on MDM2 it was 10 to 100 nM; on MDMX, 10 to 100 nM.
In the case of `Cc1c(Cl)ccc2c(/C=C3\NC(=O)N(Cc4ccc(C#N)c(F)c4)C3=O)c[nH]c12` [Compound 21, (Z)-4-((4-((6-chloro-7-methyl-1H-indol-3-yl)methylene)-2,5-dioxoimidazolidin-1-yl)methyl)-2-fluorobenzonitrile], the values for the IC50 (in experiment [1]; on MDM2; on MDMX) were at most 1000 nM, 10 to 100 nM and below 10 nM, respectively.
Turning to `Cc1c(Cl)ccc2c(/C=C3\NC(=O)N(C(C(=O)NCCOP(=O)(O)O)c4ccc(F)c(F)c4)C3=O)c[nH]c12` (stereo not shown) [Compound 44, (Z)-2-(2-(4-((6-chloro-7-methyl-1H-indol-3-yl)methylene)-2,5-dioxoimidazolidin-1-yl)-2-(3,4-difluorophenyl)acetamido)dihydroethyl phosphate], the IC50 on MDM2 and at MDMX was below 10 nM in each case.
Consider `N#Cc1ccc(C(C(=O)NC(CO)CO)N2C(=O)N/C(=C\c3c[nH]c4cc(Cl)ccc34)C2=O)cc1` (stereo not shown) [Compound 31, (Z)-2-(4-((6-chloro-1H-indol-3-yl)methylene)-2,5-dioxoimidazolidin-1-yl)-2-(4-cyanophenyl)-N-(1,3-dihydroxypropan-2-yl)acetamide], for which the IC50 is 1000 to 10000 nM in experiment [1], 10 to 100 nM at MDM2 and 10 to 100 nM at MDMX.
As for `O=C1N/C(=C\c2c[nH]c3c(F)c(Cl)ccc23)C(=O)N1C(CO)c1cc(F)c(Cl)cc1F` (stereo not shown) [Compound 101, (Z)-3-(1-(4-chloro-2,5-difluorophenyl)-2-hydroxyethyl)-5-((6-chloro-7-fluoro-1H-indol-3-yl)methylene)imidazolidine-2,4-dione], the IC50 in experiment [1] is 1000 to 10000 nM; on MDM2 it was 10 to 100 nM; on MDMX it was above 100 nM.
As to `N#Cc1ccc(CN2C(=O)N/C(=C\c3c[nH]c4c(OCF)c(Cl)ccc34)C2=O)cc1F` [Compound 11, (Z)-4-((4-((6-chloro-7-(fluoromethoxyl)-1H-indol-3-yl)methylene)-2,5-dioxoimidazolidin-1-yl)methyl)-2-fluorobenzonitrile], the IC50 was 1000 to 10000 nM in experiment [1], below 10 nM on MDM2 and 10 to 100 nM at MDMX.
The matching figures for `O=C1N/C(=C\c2c[nH]c3c(F)c(Cl)ccc23)C(=O)N1Cc1ccc(Cl)cc1F` [Compound 98, (Z)-3-(4-chloro-2-fluorobenzyl)-5-((6-chloro-7-fluoro-1H-indol-3-yl)methylene)imidazolidine-2,4-dione]: at most 1000 nM, 10 to 100 nM and above 100 nM.
In experiment [1], `O=C1N/C(=C\c2c[nH]c3c(F)c(Cl)ccc23)C(=O)N1C(CCO)c1ccc(Cl)cc1` (stereo not shown) [Compound 108, (Z)-5-((6-chloro-7-fluoro-1H-indol-3-yl)methylene)-3-(1-(4-chlorophenyl)-3-hydroxypropyl)imidazolidine-2,4-dione] returned an IC50 of at most 1000 nM.
On to `N#Cc1ccc(CN2C(=O)N/C(=C\c3c[nH]c4cc(Cl)ccc34)C2=O)cc1F` [Compound 20, (Z)-4-((4-((6-chloro-1H-indol-3-yl)methylene)-2,5-dioxoimidazolidin-1-yl)methyl)-2-fluorobenzonitrile], for which the values for the IC50 (in experiment [1]; at MDM2; on MDMX) were at most 1000 nM, 10 to 100 nM and 10 to 100 nM, respectively.
`O=C(NCCO)C(c1ccc(F)c(F)c1)N1C(=O)N/C(=C\c2c[nH]c3c(F)c(Cl)ccc23)C1=O` (stereo not shown) [Compound 72, (Z)-2-(4-((6-chloro-7-fluoro-1H-indol-3-yl)methylene)-2,5-dioxoimidazolidin-1-yl)-2-(3,4-difluorophenyl)-N-(2-hydroxyethyl)acetamide]: the IC50 was at most 1000 nM in experiment [1], below 10 nM on MDM2 and below 10 nM on MDMX.
With `N#Cc1ccc(CN2C(=O)N/C(=C\c3c[nH]c4c(F)c(Cl)ccc34)C2=O)cc1F` [Compound 14, (Z)-4-((4-((6-chloro-7-fluoro-1H-indol-3-yl)methylene)-2,5-dioxoimidazolidin-1-yl)methyl)-2-fluorobenzonitrile], the IC50 in experiment [1] is at most 1000 nM; at MDM2, below 10 nM; on MDMX, below 10 nM.
Consider `N#Cc1ccc(C(C(=O)NCCO)N2C(=O)N/C(=C\c3c[nH]c4c(F)c(Cl)ccc34)C2=O)cc1F` (stereo not shown) [Compound 41, (Z)-2-(4-((6-chloro-7-fluoro-1H-indol-3-yl)methylene)-2,5-dioxoimidazolidin-1-yl)-2-(4-cyano-3-fluorophenyl)-N-(2-hydroxyethyl)acetamide], for which the IC50 was at most 1000 nM in experiment [1], below 10 nM at MDM2 and below 10 nM at MDMX.
For `Cc1c(Cl)ccc2c(/C=C3\NC(=O)N(C(COP(=O)(O)O)c4ccc(F)c(F)c4)C3=O)c[nH]c12` (stereo not shown) [Compound 43, (Z)-2-(4-((6-chloro-7-methyl-1H-indol-3-yl)methylene)-2,5-dioxoimidazolidin-1-yl)-2-(3,4-difluorophenyl)ethyl dihydrophosphate], the IC50 at MDM2 and at MDMX was 10 to 100 nM each time.
`COc1c(Cl)ccc2c(/C=C3\NC(=O)N(C(C)c4ccc(F)c(F)c4)C3=O)c[nH]c12` (stereo not shown) [Compound 25, (Z)-5-((6-chloro-7-methoxyl-1H-indol-3-yl)methylene)-3-(1-(3,4-difluorophenyl)ethyl)imidazolidine-2,4-dione]: the IC50 on MDM2 and at MDMX was 10 to 100 nM each time.
In turn, `O=C1N/C(=C\c2c[nH]c3c(F)c(Cl)ccc23)C(=O)N1C(CCCO)c1ccc(Cl)cc1` (stereo not shown) [Compound 109, (Z)-5-((6-chloro-7-fluoro-1H-indol-3-yl)methylene)-3-(1-(4-chlorophenyl)-4-hydroxybutyl)imidazolidine-2,4-dione] returned an IC50 in experiment [1] of at most 1000 nM.
For `Cc1c(Cl)ccc2c(/C=C3\NC(=O)N(C(COP(=O)(O)O)c4ccc(C#N)cc4)C3=O)c[nH]c12` (stereo not shown) [Compound 92, (Z)-2-(4-((6-chloro-7-methyl-1H-indol-3-yl)methylene)-2,5-dioxoimidazolidin-1-yl)-2-(4-cyanophenyl)ethyl dihydrophosphate], the IC50 at MDM2 and at MDMX was 10 to 100 nM each time.
Regarding `O=C1N/C(=C\c2c[nH]c3cc(Cl)ccc23)C(=O)N1[C@@H](COP(=O)(O)O)c1ccc(F)c(F)c1` [Compound 95, (R,Z)-2-(4-((6-chloro-1H-indol-3-yl)methylene)-2,5-dioxoimidazolidin-1-yl)-2-(3,4-difluorophenyl)dihydroethyl phosphate], the IC50 on MDM2 and on MDMX was 10 to 100 nM throughout.
Regarding `O=C1N/C(=C\c2c[nH]c3cc(Cl)ccc23)C(=O)N1[C@H](COP(=O)(O)O)c1ccc(F)c(F)c1` [Compound 94, (S,Z)-2-(4-((6-chloro-1H-indol-3-yl)methylene)-2,5-dioxoimidazolidin-1-yl)-2-(3,4-difluorophenyl)dihydroethyl phosphate], the IC50 at MDM2 and at MDMX was below 10 nM throughout.
For `CCN(CC)CCNC(=O)C(c1ccc(Cl)cc1)N1C(=O)N/C(=C\c2c[nH]c3cc(Cl)ccc23)C1=O` (stereo not shown) [Compound 23, (Z)-2-(4-((6-chloro-1H-indol-3-yl)methylene)-2,5-dioxoimidazolidin-1-yl)-2-(4-chlorophenyl)-N-(2-(diethylamino)ethyl)acetamide], the IC50 on MDM2 and at MDMX was 10 to 100 nM each time.
In experiment [1], `Cc1c(Cl)ccc2c(/C=C3\NC(=O)N(C(CO)c4ccc(F)c(F)c4)C3=O)c[nH]c12` (stereo not shown) [Compound 39, (Z)-5-((6-chloro-7-methyl-1H-indol-3-yl)methylene)-3-(1-(3,4-difluorophenyl)-2-hydroxyethyl)imidazolidine-2,4-dione] yielded an IC50 of 1000 to 10000 nM.
For the compound `Cc1c(Cl)ccc2c(/C=C3\NC(=O)N(C(C(=O)NC(COP(=O)(O)O)COP(=O)(O)O)c4ccc(F)c(F)c4)C3=O)c[nH]c12` (stereo not shown) [Compound 74, (Z)-2-(2-(4-((6-chloro-7-methyl-1H-indol-3-yl)methylene)-2,5-dioxoimidazolidin-1-yl)-2-(3,4-difluorophenyl)acetamido)propane-1,3-diylbis(dihydrophosphate)], the IC50 is above 100 nM at MDM2 and 10 to 100 nM at MDMX.
On the same counts, the results for `O=C1N/C(=C\c2c[nH]c3c(Cl)c(Cl)ccc23)C(=O)N1Cc1ccc(F)c(F)c1` [Compound 7, (Z)-5-((6,7-dichloro-1H-indol-3-yl)methylene)-3-(3,4-difluorobenzyl)imidazolidine-2,4-dione] are 10 to 100 nM and 10 to 100 nM.
With `O=C1N/C(=C\c2c[nH]c3c(OCF)c(Cl)ccc23)C(=O)N1Cc1ccc(F)c(F)c1` [Compound 6, (Z)-5-((6-chloro-7-(fluoromethoxyl)-1H-indol-3-yl)methylene)-3-(3,4-difluorobenzyl)imidazolidine-2,4-dione], the IC50 on MDM2 and on MDMX was 10 to 100 nM throughout.
